The source of these data is the supplement of paper PMC10307832.

Holding throughout (experiment): relative viability (nuclei count vs DMSO), 5 days (fraction); higher = more cells survive
Compound in assay [1]: CN[C@@H]1C[C@H]2O[C@@](C)([C@@H]1OC)n1c3ccccc3c3c4c(c5c6ccccc6n2c5c31)C(=O)NC4 [Staurosporine] + CC(=O)c1c(C)c2cnc(Nc3ccc(N4CCNCC4)cn3)nc2n(C2CCCC2)c1=O [Palbociclib] (partner 0.5 µM)
In a few lines:
(§1)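 Relative viability divides the nuclei count in treated wells by that in vehicle wells. Lung cancer cell lines were seeded in 1536-well plates, dosed by pin tool the next day, and fixed and stained after 5 days in one step with final 0.05% Triton X-100, 1% formaldehyde and 1 ug/ml Hoechst. Dosing was a single drug or a fixed anchor-drug dose plus five library-drug doses (not always all listed) in √10 steps, and values are medians of duplicate plates imaged at 4×.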

Compound in assay [2]: O=c1[nH]cc(F)c(=O)[nH]1 [5-Fluorouracil] + N=C(N)NC(=N)NCCc1ccccc1 [Phenformin] (partner 250 µM)
Summed up: as §1

Compound in the assay “5-Fluorouracil + OSI-027”: O=c1[nH]cc(F)c(=O)[nH]1 [5-Fluorouracil] + COc1cccc2cc(-c3nc([C@H]4CC[C@H](C(=O)O)CC4)n4ncnc(N)c34)[nH]c12 [OSI-027] (partner 0.5 µM)
Summed up: as §1

Compound in assay [3]: CN[C@@H]1C[C@H]2O[C@@](C)([C@@H]1OC)n1c3ccccc3c3c4c(c5c6ccccc6n2c5c31)C(=O)NC4 [Staurosporine] + CS(=O)(=O)N1CCN(Cc2cc3nc(-c4cccc5[nH]ncc45)nc(N4CCOCC4)c3s2)CC1 [Pictilisib] (partner 1 µM)
In a few lines: as §1

UMC-11: the relative viability in assay [1] (first compound 0.005 µM) came to 0.335; in assay [1] (first compound 0.05 µM), 0.201; in assay [1] (first compound 0.1581 µM), 0.152; in assay [1] (first compound 0.5 µM), 0.158; in assay [2] (first compound 0.02 µM) it was 0.368; in assay [2] (first compound 0.2 µM) it was 0.308. Besides, the relative viability in assay [2] (first compound 0.6325 µM) amounted to 0.326; in assay [2] (first compound 2 µM), 0.339; in the assay with 5-Fluorouracil + OSI-027 (first compound 0.02 µM), 0.445; with 5-Fluorouracil + OSI-027 (first compound 0.2 µM), 0.477; with 5-Fluorouracil + OSI-027 (first compound 0.6325 µM), 0.406; with 5-Fluorouracil + OSI-027 (first compound 2 µM), 0.372. Also, the relative viability in assay [3] (first compound 0.005 µM) is 0.841; in assay [3] (first compound 0.01581 µM) it was 0.115; in assay [3] (first compound 0.05 µM), 0.207; in assay [3] (first compound 0.1581 µM), 0.101; in assay [3] (first compound 0.5 µM) it was 0.0718.
